Consider one molecule from ChEMBL document CHEMBL3232809, “Synthesis, antibiotic activity and structure-activity relationship study of some 3-enaminetetramic acids” (2014).

Converted amounts (≈) assume the structure as drawn.

Holding throughout (type): functional
For test [1], the system named is Staphylococcus aureus. Kind of test: Antimicrobial activity against vancomycin-susceptible Staphylococcus aureus ATCC 25923.
The test system of test [2] is Escherichia coli. Kind of test: Antimicrobial activity against Escherichia coli ATCC 25922.
Test [3] deals with Staphylococcus aureus. Kind of test: Antimicrobial activity against methicillin-sensitive Staphylococcus aureus ATCC 13709.
The test system of test [4] is Enterococcus faecalis. Kind of test: Antimicrobial activity against vancomycin-susceptible Enterococcus faecalis ATCC 29212.
For test [5], the system named is Staphylococcus aureus. The test can be described thus: Antimicrobial activity against Staphylococcus aureus Oxford.
In test [6] the test system is Staphylococcus aureus. Kind of test: Antimicrobial activity against methicillin-resistant Staphylococcus aureus.
For test [7], the system named is Streptococcus pneumoniae. The test can be described thus: Antimicrobial activity against erythromycin-susceptible Streptococcus pneumoniae ATCC 49619.
Test [8] concerns Enterococcus faecium. Kind of test: Antimicrobial activity against vancomycin-resistant Enterococcus faecium.
For test [9], the system named is Haemophilus influenzae. Kind of test: Antimicrobial activity against Haemophilus influenzae ATCC 31517 MMSA.
The subject of test [10] is Streptococcus pneumoniae. Kind of test: Antimicrobial activity against penicillin- and erythromycin-resistant Streptococcus pneumoniae.
For test [11], the system named is Haemophilus influenzae. The test can be described thus: Antimicrobial activity against LS2 Efflux knock-out Haemophilus influenzae.
Test [12] concerns Escherichia coli. Kind of test: Antimicrobial activity against Escherichia coli 49.
For test [13], the system named is Pseudomonas aeruginosa. The test can be described thus: Antimicrobial activity against Pseudomonas aeruginosa ATCC 27853.
The test system of test [14] is Streptococcus pneumoniae. The test can be described thus: Antimicrobial activity against penicillin- and erythromycin-resistant Streptococcus pneumoniae in presence of 2.5% horse blood.
Test [15] relates to Escherichia coli. The test can be described thus: Antimicrobial activity against Escherichia coli 50.

For the molecule `C/C(Nc1ccccc1)=C1\C(=O)N2[C@H](C(C)(C)C)OC[C@@]2(C)C1=O` (racemic), the MIC in [1] is 64 µg/mL (≈ 195 µM); in test [2], > 32 µg/mL; in [3], 64 µg/mL (≈ 195 µM); in test [4], 64 µg/mL (≈ 195 µM); in test [5], 64 µg/mL (≈ 195 µM); in test [6], 64 µg/mL (≈ 195 µM). Also, the MIC in test [7] was 8 µg/mL (≈ 24.4 µM); in test [8] it was 32 µg/mL (≈ 97.4 µM); in [9], > 64 µg/mL; in test [10], 8 µg/mL (≈ 24.4 µM); in [11], 8 µg/mL (≈ 24.4 µM); in test [12], > 32 µg/mL. The MIC is > 32 µg/mL in test [13], 8 µg/mL in test [14] and > 32 µg/mL in [15].
